# Reference: PMC6166404 (Journal of medicinal chemistry, 2018)
# Like-named read-outs stand apart in the source and are kept apart here.
# Legend:
# HEK293T cells = conditions: 25 μM, LDH release
# MCF7 cells = conditions: 25 μM, LDH release
# Mtb H37Rv (ATCC 27294) [1] = type: cell-based; conditions: for antibacterial activity over two weeks: two weeks in culture; for effect of guanine on MIC: presence of guanine (200 μM)
# Hela cells = conditions: 25 μM, LDH release
# HepG2 cells = conditions: 24 h; for cytotoxicity, lactate dehydrogenase release: 25 μM, range stated for the three compounds together; for LD50 / cytotoxicity (in words): LDH release; for cytotoxicity (in words): up to 25 μM
# [2] = 2 h
# H37Rv = type: cell-based; conditions: addition of ATc
# human GMPR2 = target: T1, human GMPR2 (Homo sapiens, UniProt Q9P2T1); test: biochemical
# T1 sequence (Q9P2T1 1-348): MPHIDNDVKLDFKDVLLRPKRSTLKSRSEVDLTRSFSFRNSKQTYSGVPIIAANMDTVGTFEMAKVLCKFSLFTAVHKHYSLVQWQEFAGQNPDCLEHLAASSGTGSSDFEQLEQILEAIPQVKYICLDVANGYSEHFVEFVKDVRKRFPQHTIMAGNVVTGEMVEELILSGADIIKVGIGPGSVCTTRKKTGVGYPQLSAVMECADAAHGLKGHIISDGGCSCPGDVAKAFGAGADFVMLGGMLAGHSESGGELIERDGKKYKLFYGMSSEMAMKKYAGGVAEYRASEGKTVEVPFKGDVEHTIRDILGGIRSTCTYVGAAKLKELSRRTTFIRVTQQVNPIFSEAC
# Mtb H37Rv (ATCC 27294) [3] = conditions: 7H9/ADC/Tween medium, no guanine, 1 week; cited from earlier work
# human IMPDH2 = human IMPDH2 (Homo sapiens, UniProt P12268); test: biochemical
compound,measurement,setting,value
"C[C@H](Nc1cccc(F)c1F)C(=O)Nc1ccc2oc(-c3ccc(C#N)cc3)nc2c1 [Compound 17b, (S)-N-(2-(4-Cyanophenyl)benzo[d]oxazol-5-yl)-2-((2,3-difluorophenyl)amino)propanamide]",cytotoxicity,HEK293T cells,less than 10%
same,cytotoxicity,MCF7 cells,less than 10%
same,antibacterial activity over two weeks,Mtb H37Rv (ATCC 27294) [1]; Mtb H37Rv,retained antibacterial activity
same,effect of guanine on MIC,Mtb H37Rv (ATCC 27294) [1],does not change
same,cytotoxicity,Hela cells,less than 10%
same,"cytotoxicity, lactate dehydrogenase release",HepG2 cells,9–13%
same,LD50,HepG2 cells,> 25 µM
same,stability in mouse plasma,[2],No decomposition
same,effect of ATc on antibacterial activity against the wild-type strain,H37Rv,not affected
"COc1ccc(-c2nc3cc(NC(=O)[C@H](C)Oc4ccccc4C#N)ccc3o2)cc1 [Compound 8u, (S)-2-(2-Cyanophenoxy)-N-(2-(4-methoxyphenyl)benzo[d]oxazol-5-yl)propanamide]",antibacterial activity over two weeks,Mtb H37Rv (ATCC 27294) [1]; Mtb H37Rv,retained antibacterial activity
same,"cytotoxicity, lactate dehydrogenase release",HepG2 cells,9–13%
same,LD50,HepG2 cells,> 25 µM
"COc1ccc(-c2nc3cc(NC[C@H](C)Oc4cccc(Cl)c4Cl)ccc3o2)cc1 [Compound 11, (S)-N-(2-(2,3-Dichlorophenoxy)propyl)-2-(4-methoxyphenyl)benzo[d]oxazol-5-amine]",Ki,human GMPR2,> 5 µM
"C#CCOC(=O)COc1ccc(-c2nc3cc(NC(=O)[C@H](C)Oc4cccc(Cl)c4Cl)ccc3o2)cc1 [Compound 20, Prop-2-yn-1-yl (S)-2-(4-(5-(2-(2,3-dichlorophenoxy)propanamido)benzo[d]oxa-zol-2-yl)phenoxy)acetate]",antibacterial activity over two weeks,Mtb H37Rv (ATCC 27294) [1]; Mtb H37Rv,retained antibacterial activity
same,cytotoxicity (in words),HepG2 cells,"Only compounds 8p, 8u and 17b displayed measurable cytotoxicity"
"COc1ccc(OC(C)C(=O)Nc2ccc3oc(-c4ccncc4)nc3c2)cc1 (stereo not shown) [Compound 1, reference compound]",effect of ATc on antibacterial activity against the wild-type strain,H37Rv,not affected
same,7H9/ADC/Tween MIC −Gua,Mtb H37Rv (ATCC 27294) [3],10 ± 2 (3) μM
"(S)-2-(2,3-Dichlorophenoxy)-N-(2-(2-methoxypyridin-4-yl)benzo[d]oxazol-5-yl)propanamide [Compound 8b]",7H9/ADC/Tween MIC +Gua,"Mtb H37Rv (ATCC 27294) [1]; Mtb H37Rv, 7H9/ADC/Tween medium, 200 μM guanine, 1 week",14 ± 5 (2) μM
same,7H9/ADC/Tween MIC −Gua,"Mtb H37Rv (ATCC 27294) [1]; Mtb H37Rv, 7H9/ADC/Tween medium, no guanine, 1 week",3.5 ± 1.2 (2) μM
same,GAST/Fe MIC +Gua,"Mtb H37Rv (ATCC 27294) [1]; Mtb H37Rv, GAST/Fe medium, 200 μM guanine, 1 week",6.3 ± 0.0 (2) μM
same,GAST/Fe MIC −Gua,"Mtb H37Rv (ATCC 27294) [1]; Mtb H37Rv, GAST/Fe medium, no guanine, 1 week",6.3 ± 0.0 (2) μM
"CCOC(=O)COc1ccc(-c2nc3cc(NC(=O)[C@H](C)Oc4cccc(Cl)c4Cl)ccc3o2)cc1 [Compound 18a, Ethyl (S)-2-(4-(5-(2-(2,3-dichlorophenoxy)propanamido)benzo[d]oxazol-2-yl)phenoxy)acetate]",antibacterial activity over two weeks,Mtb H37Rv (ATCC 27294) [1]; Mtb H37Rv,retained antibacterial activity
same,cytotoxicity (in words),HepG2 cells,"Only compounds 8p, 8u and 17b displayed measurable cytotoxicity"
same,effect of ATc on antibacterial activity against the wild-type strain,H37Rv,not affected
"C[C@H](Oc1cccc(Cl)c1Cl)C(=O)Nc1ccc2oc(-c3ccc(C(=O)NO)cc3)nc2c1 [Compound 21, (S)-4-(5-(2-(2,3-Dichlorophenoxy)propanamido)benzo[d]oxazol-2-yl)-N-hydroxybenzamide]",antibacterial activity over two weeks,Mtb H37Rv (ATCC 27294) [1]; Mtb H37Rv,retained activity
"C[C@H](Oc1cccc(Cl)c1Cl)C(=O)Nc1ccc2oc(-c3ccc(OCC(=O)O)cc3)nc2c1 [Compound 19a, (S)-2-(4-(5-(2-(2,3-Dichlorophenoxy)propanamido)benzo[d]oxazol-2-yl)phenoxy)acetic acid]",cytotoxicity (in words),HepG2 cells,no cytotoxicity was observed
"C[C@H](Oc1cccc(Cl)c1Cl)C(=O)Nc1ccc2oc(-c3ccc(-c4nnn[nH]4)cc3)nc2c1 [Compound 27, (S)-N-(2-(4-(1H-Tetrazol-5-yl)phenyl)benzo[d]oxazol-5-yl)-2-(2,3-dichlorophenoxy)propanamide]",Ki,human IMPDH2,> 5 µM
same,Ki,human GMPR2,> 5 µM
"C[C@H](Oc1cccc(Cl)c1Cl)C(=O)Nc1ccc2oc(-c3ccc(C(=O)O)cc3)nc2c1 [Compound 22, (S)-4-(5-(2-(2,3-Dichlorophenoxy)propanamido)benzo[d]oxazol-2-yl)benzoic acid]",antibacterial activity over two weeks,Mtb H37Rv (ATCC 27294) [1]; Mtb H37Rv,retained activity
same,effect of ATc on antibacterial activity against the wild-type strain,H37Rv,not affected
"C[C@H](Oc1cccc(F)c1F)C(=O)Nc1ccc2oc(-c3ccncc3)nc2c1 [Compound 8l, (S)-2-(2,3-Difluorophenoxy)-N-(2-(pyridin-4-yl)benzo[d]oxazol-5-yl)propanamide]",antibacterial activity over two weeks,Mtb H37Rv (ATCC 27294) [1]; Mtb H37Rv,retained antibacterial activity
same,cytotoxicity (in words),HepG2 cells,"Only compounds 8p, 8u and 17b displayed measurable cytotoxicity"
"C[C@H](Oc1cccc(F)c1F)C(=O)Nc1ccc2oc(-c3ccc(C#N)cc3)nc2c1 [Compound 8p, (S)-N-(2-(4-Cyanophenyl)benzo[d]oxazol-5-yl)-2-(2,3-difluorophenoxy)propanamide]","cytotoxicity, lactate dehydrogenase release",HepG2 cells,9–13%
same,LD50,HepG2 cells,> 25 µM
"COc1ccc(-c2nc3cc(NC(=O)[C@H](C)Oc4cccc(Cl)c4Cl)ccc3o2)cn1 [Compound 8c, (S)-2-(2,3-dichlorophenoxy)-N-(2-(6-methoxypyridin-3-yl)benzo[d]oxazol-5-yl)propanamide]",effect of guanine on MIC,Mtb H37Rv (ATCC 27294) [1],increased in the presence of guanine in 7H9/ADC/Tween medium but not in GAST/Fe
"C[C@H](Oc1cccc(F)c1F)C(=O)Nc1ccc2oc(-c3ccc(O)cc3)nc2c1 [Compound 8n, (S)-2-(2,3-Difluorophenoxy)-N-(2-(4-hydroxyphenyl)benzo[d]oxazol-5-yl)propanamide]",effect of guanine on MIC,Mtb H37Rv (ATCC 27294) [1],increased substantially in the presence of guanine in both media
"C[C@H](Nc1cccc(Cl)c1Cl)C(=O)Nc1ccc2oc(-c3ccc(C#N)cc3)nc2c1 [Compound 17a, (S)-N-(2-(4-Cyanophenyl)benzo[d]oxazol-5-yl)-2-((2,3-dichlorophenyl)amino)propanamide]",antibacterial activity over two weeks,Mtb H37Rv (ATCC 27294) [1]; Mtb H37Rv,retained antibacterial activity
